# According to ChEMBL document CHEMBL3879901, “Substituted isoquinolin-1(2H)-ones, and methods of use thereof” (2012):
# pEC50, pIC50: −log10 of the molar value. Activity calls are given as the source filed them. The rule behind the calls is not given here.
# How the values were obtained:
# [1] = biological target: PI3-kinase p110-alpha/p85-alpha (Homo sapiens, UniProt P42336); test: Inhibition of N-terminal His6-tagged recombinant full-length human p110alpha/untagged recombinant full length human p85alpha expressed in baculovirus infected Sf21 cells using phosphatidylinositol as substrate in presence of gamma-32P-ATP after 5 mins by thin layer chromatographic method
# Chain of PI3-kinase p110-alpha/p85-alpha (P27986 whole entry): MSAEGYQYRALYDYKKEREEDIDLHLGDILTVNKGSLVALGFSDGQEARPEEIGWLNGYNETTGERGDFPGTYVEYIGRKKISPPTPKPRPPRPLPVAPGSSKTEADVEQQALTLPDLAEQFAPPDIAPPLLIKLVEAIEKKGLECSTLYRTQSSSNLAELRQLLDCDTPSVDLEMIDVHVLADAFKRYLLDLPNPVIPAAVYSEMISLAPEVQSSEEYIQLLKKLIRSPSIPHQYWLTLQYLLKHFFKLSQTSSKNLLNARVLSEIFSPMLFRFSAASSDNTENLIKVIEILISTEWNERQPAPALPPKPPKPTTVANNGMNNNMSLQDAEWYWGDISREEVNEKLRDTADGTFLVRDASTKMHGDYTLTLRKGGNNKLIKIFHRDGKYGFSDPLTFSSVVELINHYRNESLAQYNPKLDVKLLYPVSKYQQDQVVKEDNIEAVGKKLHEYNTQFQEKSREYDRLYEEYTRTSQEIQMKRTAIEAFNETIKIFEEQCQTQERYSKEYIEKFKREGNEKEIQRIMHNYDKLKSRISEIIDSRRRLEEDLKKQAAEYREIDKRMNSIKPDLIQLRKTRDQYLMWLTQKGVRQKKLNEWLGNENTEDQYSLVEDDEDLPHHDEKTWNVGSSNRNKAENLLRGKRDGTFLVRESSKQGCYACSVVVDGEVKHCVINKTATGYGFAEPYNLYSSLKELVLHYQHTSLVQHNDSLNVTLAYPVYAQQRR
# Chain of PI3-kinase p110-alpha/p85-alpha (P42336 whole entry): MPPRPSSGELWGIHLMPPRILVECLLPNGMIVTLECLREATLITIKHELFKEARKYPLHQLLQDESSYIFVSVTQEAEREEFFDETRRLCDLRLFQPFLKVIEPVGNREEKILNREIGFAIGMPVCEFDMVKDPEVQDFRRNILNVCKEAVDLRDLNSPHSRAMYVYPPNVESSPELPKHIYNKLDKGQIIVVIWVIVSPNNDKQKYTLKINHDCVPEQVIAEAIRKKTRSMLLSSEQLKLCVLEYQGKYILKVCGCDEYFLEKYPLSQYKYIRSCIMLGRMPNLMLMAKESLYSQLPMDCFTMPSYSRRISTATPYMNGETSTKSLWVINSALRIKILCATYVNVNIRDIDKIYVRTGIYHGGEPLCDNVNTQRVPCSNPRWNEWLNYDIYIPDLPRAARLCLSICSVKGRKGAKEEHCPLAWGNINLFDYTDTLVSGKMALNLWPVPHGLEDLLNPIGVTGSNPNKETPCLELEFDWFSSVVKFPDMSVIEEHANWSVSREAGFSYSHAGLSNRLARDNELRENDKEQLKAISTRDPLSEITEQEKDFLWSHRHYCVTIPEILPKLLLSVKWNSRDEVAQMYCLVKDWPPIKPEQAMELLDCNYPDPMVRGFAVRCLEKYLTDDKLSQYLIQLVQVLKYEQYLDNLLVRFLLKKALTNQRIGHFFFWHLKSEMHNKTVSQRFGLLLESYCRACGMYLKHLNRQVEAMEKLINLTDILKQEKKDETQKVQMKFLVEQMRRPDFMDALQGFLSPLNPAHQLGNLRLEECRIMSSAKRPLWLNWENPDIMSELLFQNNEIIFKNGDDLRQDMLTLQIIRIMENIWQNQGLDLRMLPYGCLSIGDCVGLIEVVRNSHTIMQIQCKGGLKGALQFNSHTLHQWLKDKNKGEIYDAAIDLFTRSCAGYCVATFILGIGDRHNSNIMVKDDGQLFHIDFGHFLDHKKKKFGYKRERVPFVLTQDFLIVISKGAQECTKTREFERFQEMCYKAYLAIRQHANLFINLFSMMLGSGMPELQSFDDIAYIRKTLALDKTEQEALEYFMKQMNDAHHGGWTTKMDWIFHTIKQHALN
# [2] = biological target: PI3K p110 beta/p85 alpha (Homo sapiens, UniProt P42338); test: Inhibition of N-terminal His6-tagged recombinant full-length human p110beta/untagged recombinant full length p85alpha expressed in baculovirus infected Sf21 cells using phosphatidylinositol as substrate in presence of gamma-32P-ATP after 5 mins by thin layer chromatographic method
# Chain of PI3K p110 beta/p85 alpha (P27986 whole entry): as the sequence (P27986 whole entry) above
# Chain of PI3K p110 beta/p85 alpha (P42338 whole entry): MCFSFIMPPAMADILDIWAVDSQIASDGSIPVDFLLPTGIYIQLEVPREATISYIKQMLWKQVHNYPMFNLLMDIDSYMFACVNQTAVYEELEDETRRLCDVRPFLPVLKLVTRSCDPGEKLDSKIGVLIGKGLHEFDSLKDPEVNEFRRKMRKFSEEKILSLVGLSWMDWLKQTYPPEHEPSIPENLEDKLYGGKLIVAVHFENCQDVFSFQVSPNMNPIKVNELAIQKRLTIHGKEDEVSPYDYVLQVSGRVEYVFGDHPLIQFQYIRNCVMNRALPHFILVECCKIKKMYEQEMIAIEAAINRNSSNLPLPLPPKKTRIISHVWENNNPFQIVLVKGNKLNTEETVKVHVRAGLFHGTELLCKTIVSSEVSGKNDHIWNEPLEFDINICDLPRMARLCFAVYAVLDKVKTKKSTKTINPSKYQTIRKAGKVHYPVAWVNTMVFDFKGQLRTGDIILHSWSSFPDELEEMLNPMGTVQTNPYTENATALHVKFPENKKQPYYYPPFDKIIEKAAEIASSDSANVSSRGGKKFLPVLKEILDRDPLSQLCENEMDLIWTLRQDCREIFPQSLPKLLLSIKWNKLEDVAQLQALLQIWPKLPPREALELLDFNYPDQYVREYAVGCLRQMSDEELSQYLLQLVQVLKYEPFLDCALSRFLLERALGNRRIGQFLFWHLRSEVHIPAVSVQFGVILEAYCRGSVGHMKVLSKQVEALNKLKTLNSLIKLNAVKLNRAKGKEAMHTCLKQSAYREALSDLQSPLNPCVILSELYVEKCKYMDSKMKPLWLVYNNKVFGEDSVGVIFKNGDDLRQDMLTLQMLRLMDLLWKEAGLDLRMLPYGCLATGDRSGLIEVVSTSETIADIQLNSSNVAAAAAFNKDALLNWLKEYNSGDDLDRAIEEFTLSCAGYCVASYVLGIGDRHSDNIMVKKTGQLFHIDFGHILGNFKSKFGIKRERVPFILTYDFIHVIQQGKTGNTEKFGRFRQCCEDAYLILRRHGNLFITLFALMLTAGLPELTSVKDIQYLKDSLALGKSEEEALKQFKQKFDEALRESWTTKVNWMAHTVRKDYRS
# [3] = Antiproliferative activity against Balb/c mouse splenic B cells preincubated for 30 mins followed by LPS or F(ab')2 donkey anti-mouse IgM and recombinant mouse IL4 stimulation measured after 72 hrs by Alamar Blue reduction assay; format: functional, cell-based
# [4] = system: Rattus norvegicus; test: Antiarthritic activity in type 2 collagen-induced Lewis rat arthritis model assessed as reduction in ankle pannus at 60 mg/kg, po administered every 12 hrs for 16 days measured on day 17 of post last dose by toluidine blue staining-based assay; format: functional, organism-based
# [5] = system: Rattus norvegicus; test: Antiarthritic activity in type 2 collagen-induced Lewis rat arthritis model assessed as reduction in cartilage damage in ankle at 60 mg/kg, po administered every 12 hrs for 16 days measured on day 17 of post last dose by toluidine blue staining-based assay; format: functional, organism-based
# [6] = system: Rattus norvegicus; test: Antiarthritic activity in type 2 collagen-induced Lewis rat arthritis model assessed as reduction in bone resorption in ankle at 60 mg/kg, po administered every 12 hrs for 16 days measured on day 17 of post last dose by toluidine blue staining-based assay; format: functional, organism-based
# [7] = system: Rattus norvegicus; test: Antiarthritic activity in type 2 collagen-induced po dosed Lewis rat arthritis model assessed as reduction in knee inflammation administered every 12 hrs for 16 days measured on day 17 of post last dose by toluidine blue staining-based assay; format: functional, organism-based
# [8] = system: Rattus norvegicus; test: Antiarthritic activity in type 2 collagen-induced po dosed Lewis rat arthritis model assessed as reduction in cartilage damage in knee administered every 12 hrs for 16 days measured on day 17 of post last dose by toluidine blue staining-based assay; format: functional, organism-based
# [9] = system: Rattus norvegicus; test: Antiarthritic activity in type 2 collagen-induced po dosed Lewis rat arthritis model assessed as reduction in bone resorption in knee administered every 12 hrs for 16 days measured on day 17 of post last dose by toluidine blue staining-based assay; format: functional, organism-based
# [10] = system: Rattus norvegicus; test: Antiarthritic activity in type 2 collagen-induced Lewis rat arthritis model assessed as reduction in serum anti-type 2 collagen levels at 10 mg/kg, po administered every 12 hrs for 16 days measured on day 17 of post last dose by ELISA relative to control; format: functional; design: scale not given: the % may be the effect or the level left
# [11] = system: Rattus norvegicus; test: Antiarthritic activity in type 2 collagen-induced Lewis rat arthritis model assessed as reduction in serum anti-type 2 collagen levels at 30 mg/kg, po administered every 12 hrs for 16 days measured on day 17 of post last dose by ELISA relative to control; format: functional; design: scale not given: the % may be the effect or the level left
# [12] = system: Mus musculus; test: Reduction of TNP-Ficoll-induced T cell independent B cell activation in BDA-1 mouse assessed as decrease in IgG3 levels in serum at 1 mg/kg, po bid administered for 7 days by ELISA relative to control; format: functional
# [13] = system: Mus musculus; test: Reduction of TNP-Ficoll-induced T cell independent B cell activation in BDA-1 mouse assessed as decrease in IgG3 levels in serum at 3 mg/kg, po bid administered for 7 days by ELISA relative to control; format: functional
# [14] = system: Rattus norvegicus; test: Antiarthritic activity in type 2 collagen-induced Lewis rat arthritis model assessed as reduction in ankle diameter at 10 to 60 mg/kg, po qd administered for 6 days measured every day of compound dosing and day 7 of post last dose; format: functional, organism-based
# [15] = system: Rattus norvegicus; test: Antiarthritic activity in type 2 collagen-induced Lewis rat arthritis model assessed as reduction in ankle diameter at 10 to 60 mg/kg, po bid administered for 6 days measured every day of compound dosing and day 7 of post last dose; format: functional, organism-based
# [16] = Toxicity in complete freund's adjuvant-induced intrathecally dosed Lewis rat arthritis model assessed as body weight loss at 10 to 60 mg/kg, administered intrathecally on day 8 to 20 post arthritis induction measured every second day of compound dosing; format: organism-based; settings: in vivo, icv_or_intrathecal
# [17] = species on record: Homo sapiens; test: Inhibition of allergen-induced activation of basophilic granulocytes in human whole blood preincubated for 20 mins followed by allergen induction measured after 20 mins using sub micromolar range of compound by basotest assay; format: functional, tissue-based
# [18] = biological target: T1, Phosphatidylinositol 4,5-bisphosphate 3-kinase catalytic subunit delta isoform (Mus musculus) (UniProt O35904); test: Inhibition of PI3Kdelta in LPS or anti-CD40/IL4-stimulated mouse B cells assessed as decrease in IgG response in presence of mTOR inhibitor rapamycin relative to vehicle-treated control; format: cell-based
# T1 sequence (whole entry): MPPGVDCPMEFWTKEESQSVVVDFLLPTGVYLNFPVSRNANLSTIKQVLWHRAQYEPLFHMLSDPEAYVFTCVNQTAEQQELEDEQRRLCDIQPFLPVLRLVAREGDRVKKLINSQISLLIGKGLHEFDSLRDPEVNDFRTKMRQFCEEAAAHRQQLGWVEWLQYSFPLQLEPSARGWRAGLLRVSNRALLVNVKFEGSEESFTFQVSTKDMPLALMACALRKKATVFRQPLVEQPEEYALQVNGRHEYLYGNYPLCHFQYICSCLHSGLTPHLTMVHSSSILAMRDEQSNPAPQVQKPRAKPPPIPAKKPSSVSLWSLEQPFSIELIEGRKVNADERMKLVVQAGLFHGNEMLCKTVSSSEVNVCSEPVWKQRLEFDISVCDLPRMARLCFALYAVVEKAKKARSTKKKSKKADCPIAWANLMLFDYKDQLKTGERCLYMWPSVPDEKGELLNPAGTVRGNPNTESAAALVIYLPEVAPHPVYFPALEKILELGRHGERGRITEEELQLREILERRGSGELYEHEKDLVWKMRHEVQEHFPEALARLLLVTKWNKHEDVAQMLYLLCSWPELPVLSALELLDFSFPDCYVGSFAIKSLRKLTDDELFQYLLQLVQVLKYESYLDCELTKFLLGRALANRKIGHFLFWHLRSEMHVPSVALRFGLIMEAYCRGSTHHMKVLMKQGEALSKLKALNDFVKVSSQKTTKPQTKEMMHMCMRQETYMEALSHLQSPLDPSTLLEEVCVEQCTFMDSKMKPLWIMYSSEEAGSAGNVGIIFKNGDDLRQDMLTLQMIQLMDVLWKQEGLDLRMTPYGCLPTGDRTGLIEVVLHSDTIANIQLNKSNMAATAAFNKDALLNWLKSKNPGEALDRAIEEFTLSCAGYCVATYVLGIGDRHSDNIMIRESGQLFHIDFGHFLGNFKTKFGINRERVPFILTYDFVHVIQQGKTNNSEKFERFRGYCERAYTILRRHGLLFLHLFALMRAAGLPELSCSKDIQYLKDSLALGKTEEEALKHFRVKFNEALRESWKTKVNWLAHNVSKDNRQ
# [19] = species on record: Mus musculus; test: Inhibition of TNP-Ficoll or TNP-KHL-stimulated IgE response in mouse in presence of mTOR inhibitor rapamycin by ELISA; format: functional
smiles,measurement,setting,value
CC(=O)Nc1nc2ccc(-c3nn(Cc4cc5cccc(C)c5c(=O)n4-c4ccccc4C)c4ncnc(N)c34)cc2s1,pIC50,[1],5.00 to 6.00
same,pIC50,[2],> 5.00
same,pEC50,[3],> 7.00
same,Activity,[4],Active
same,Activity,[5],Active
same,Activity,[6],Active
same,Activity,[7],Dose-dependent effect
same,Activity,[8],Dose-dependent effect
same,Activity,[9],Dose-dependent effect
same,Activity,[10],75%
same,Activity,[11],87%
same,fold change (FC),[12],0.6
same,fold change (FC),[13],0.8
same,Activity,[14],Active
same,Activity,[15],Active
same,Activity,[16],Toxic
same,inhibition,[17],Active
same,inhibition,[18],Active
same,inhibition,[19],Active
